In patent US5326788A, “Biological fluid purification system” (priority 1992, dated 1994):

Legend:
[1] = tested on: purified reverse transcriptase from avian myeloblastosis virus; assay: Direct incubation with purified reverse transcriptase; assay type: biochemical
Method: (§1) In FIG. 1, open squares represent hypericin-treated and pluses represent pseudohypericin treated HIV. […] Inactivation of the reverse transcriptase activity of the virions was not a result of a direct inhibition of reverse transcriptase activity per se, as incubation of either compound directly with purified reverse transcriptase from either avian myeloblastosis virus or murine leukemia virus had no effect on enzyme activity. Furthermore, aliquots of HIV derived from these H9 cell cultures lost the ability to replicate in culture when exposed to as little as 0.77 micrograms/ml of hypericin.

[2] = target: purified reverse transcriptase from murine leukemia virus (Moloney murine leukemia virus isolate Shinnick, UniProt P03355); assay: as above; assay type: biochemical
Method: as §1

HIV [3] = assay: Inhibition of HIV induced syncytia formation / cell fusion (summary over the assays); assay type: cell-based, Human Immunodeficiency Virus (HIV)
Method: (§2) In order to assess the effects of Hy and Ps on the ability of HIV to form syncytia, the following experiments were performed. For the analysis of HIV-1, an entry syncytia assay was performed by co-culturing H9 cells (described in Popovic, M. et al. Science 224: 497-500, 1984) infected with the IIIb isolate of HIV with uninfected Supt-1 cells (Walker, B. D. et al. Proc. Nat. Acad. Sci. (USA) 84: 8120-8124, 1987) as the target cell. HIV-2 was tested using HUT78 cells (obtained from the National Institute of Health by reference to Depository Catalog, Reagent Program, Bethesda, Md.) infected with the ROD-2 isolate of HIV-2 co-cultured with uninfected H9 target cells. The infected cells were plated in 96 well plates (10^4 cells per well in RPM1 1640 medium with 10% fetal calf serum) and incubated with or without dilutions of Ps or Hy for 30 minutes at 37° C. 1×10^5 target cells were then added per well and the number of syncytia were quantitatively and qualitatively determined after 24 hours.

HIV-1 = assay: Syncytia assay, H9 cells infected with IIIb isolate of HIV co-cultured with Supt-1 cells; assay type: cell-based; settings: 24 hours
Method: as §2

HIV-2 = assay: Syncytia assay, HUT78 cells infected with ROD-2 isolate co-cultured with H9 cells; assay type: cell-based; settings: 24 hours
Method: as §2

HIV [4] = assay: Inactivation of HIV from blood of sero-positive patient, reverse transcriptase activity after culture with H9 cells; assay type: cell-based, Human Immunodeficiency Virus (HIV); settings: Human immunodeficiency virus 1, H9, 1 h, read-out: concentration giving complete inactivation of HIV (no reverse transcriptase detected), 1 hour at 37° C., H9 cells
Method: In order to show the effectiveness of the compounds of the present invention in the inactivation of HIV, blood was obtained from an HIV sero-positive patient and treated with hypericin and pseudohypericin at various concentrations for 1 hour at 37° C. and incubated with uninfected H9 cells in culture. Thereafter, reverse transcriptase enzymatic activity was determined as disclosed in U.S. patent application Ser. Nos. 084,008 and 172,064 filed Aug. 10, 1987 and Mar. 23, 1988, respectively.
as §1

HIV-1 env = assay: Syncytia assay, cell line expressing only envelope proteins of HIV-1 IIIb with Supt-1 cells; assay type: cell-based; settings: 24 hours
Method: as §2
Also tested in a syncytia assay was a constructed cell line expressing only the envelope proteins of HIV-1 type IIIb isolate (Walker, B. D. et al., supra). These cells, designated HIV-1 env in Table 6, were treated with the indicated concentrations of Ps or Hy and incubated with uninfected Supt-1 target cells as above.

HIV [5] = settings: cited from earlier work

Cc1cc(O)c2c(=O)c3c(O)cc(O)c4c5c(O)cc(O)c6c(=O)c7c(O)cc(CO)c8c1c2c(c34)c(c65)c78 [pseudohypericin]
20-60 fold: dose needed for similar inhibition relative to hypericin (HIV [3]; syncytia formation)
> 100 µg/mL: IC100 (HIV [4])
2S: syncytia score (number 0-4, size S/M/L) (HIV-2; 1500 nanograms) | syncytia score (number 0-4, size S/M/L) (HIV-2; 3000 nanograms)
1S: syncytia score (number 0-4, size S/M/L) (HIV-1; 3000 nanograms) | syncytia score (number 0-4, size S/M/L) (HIV-1 env; 3000 nanograms)
4 L: syncytia score (number 0-4, size S/M/L) (HIV-1; 12 nanograms) | syncytia score (number 0-4, size S/M/L) (HIV-1; 24 nanograms) | syncytia score (number 0-4, size S/M/L) (HIV-1; 47 nanograms) | syncytia score (number 0-4, size S/M/L) (HIV-1; 94 nanograms) | syncytia score (number 0-4, size S/M/L) (HIV-1; 188 nanograms) | syncytia score (number 0-4, size S/M/L) (HIV-1; 375 nanograms) | syncytia score (number 0-4, size S/M/L) (HIV-1; 750 nanograms) | syncytia score (number 0-4, size S/M/L) (HIV-2; 12 nanograms) | syncytia score (number 0-4, size S/M/L) (HIV-2; 24 nanograms) | syncytia score (number 0-4, size S/M/L) (HIV-2; 47 nanograms) | syncytia score (number 0-4, size S/M/L) (HIV-2; 94 nanograms) | syncytia score (number 0-4, size S/M/L) (HIV-2; 188 nanograms) | syncytia score (number 0-4, size S/M/L) (HIV-2; 375 nanograms) | syncytia score (number 0-4, size S/M/L) (HIV-1 env; 12 nanograms) | syncytia score (number 0-4, size S/M/L) (HIV-1 env; 24 nanograms) | syncytia score (number 0-4, size S/M/L) (HIV-1 env; 47 nanograms) | syncytia score (number 0-4, size S/M/L) (HIV-1 env; 94 nanograms) | syncytia score (number 0-4, size S/M/L) (HIV-1 env; 188 nanograms) | syncytia score (number 0-4, size S/M/L) (HIV-1 env; 375 nanograms) | syncytia score (number 0-4, size S/M/L) (HIV-1 env; 750 nanograms)
3 L: syncytia score (number 0-4, size S/M/L) (HIV-1 env; 1500 nanograms)
effective but at substantially higher: inhibition of cell fusion (HIV [3]; compared with hypericin)
no effect: effect on enzyme activity of purified reverse transcriptase [1] | effect on enzyme activity of purified reverse transcriptase [2]
3 M: syncytia score (number 0-4, size S/M/L) (HIV-1; 1500 nanograms) | syncytia score (number 0-4, size S/M/L) (HIV-2; 750 nanograms)

nonylphenoxypolyethoxyethanol [Nonoxynol-9]
> 0.05 % (vol/vol): concentration effective against free virus (HIV [5])
